According to patent US6827926B2, “Metallotetrapyrrolic photosensitizing agents for use in photodynamic therapy” (Miravant Pharmaceuticals, Inc., priority 2001, dated 2004):
Like-named read-outs stand apart in the source and are kept apart here.

Key:
[1] = tested on: uninjured coronary and iliac arteries; assay: Pig artery acute PDT experiments in uninjured arteries (acellularity); format: in vivo; conditions: 532 nm light, 55 J, 125 J/cm2, 250 mW
Procedure: Those photosensitizers showing excellent efficacy in the rat carotid artery model were evaluated in more detail in the pig coronary artery model (Waksman, R., Rodriguez, J. C., Robinson, K. A., Cipolla, G. D., Crocker, I. R., Scott, N. A. King, S. B., Wilcox, J. N., Circulation, 96, 1944-1952, 1997). If vascular PDT is to be proposed as a therapy to prevent restenosis in humans due to angioplasty or stenting, then it must first be shown to be effective in a large animal model such as the swine. Porcine coronary arteries are very similar to human coronary arteries with regard to size, neointima formation, and thrombosis in response to injury.
(§1) Photosensitizers were administered systemically (at doses typically 2-3.5 mg/kg body weight, in a soybean phospholipid formulation) as a slow bolus injection in the ear vein. Drug treatments were followed (1-4 hr later) by endovascular light treatment (50-250 J/cm^2 fluence and 100-300 mW/cm^2 irradiance) in uninjured coronary (50-250 J/cm^2 fluence and 100-300 mW/cm^2 irradiance) and iliac (50-350 J/cm^2 fluence and 100-450 mW/cm^2 irradiance) arteries. In another set of experiments, animals also received balloon injuries in the coronary arteries at the time of PDT treatment. Angioplasty injuries in 2 coronary arteries were performed. Vital signs and cardiovascular parameters such as ECG, HR, BP, were monitored together with arterio-angiograms for measurements of vessel patency.
For acute experiments done in uninjured arteries, 3-5 days after the PDT experiments, animals were sacrificed and serial sections of all relevant arteries (iliacs, & coronaries) were harvested in 10% formalin and processed for histological assessment. Results of PDT at this timepoint give us an insight into the selective cellular effects of PDT on VSMC and myofibroblasts which are known to be maximally proliferating and migrating at this same time in response to a vessel wall injury—such as an angioplasty.
For longer term efficacy experiments (14 days after the PDT experiments) animals were sacrificed and serial sections of all relevant arteries (coronaries only) were harvested in 10% formalin and processed for histological assessment. Representative arterial segments underwent parafin embedding and sectioning for Hemoxylin & Eosin and/or elastin staining. Slides were prepared for microscopy histological analysis of the (i) acute cellular responses and (ii) inhibition of neointima formation following treatment. Once prepared, the slides were analyzed via microscopy for histomorphometry and effects such as medial wall acellularity, arterial wall and surrounding tissue cell death and proliferation. […] The magnitude of the inhibition was greater than any other photosensitizer drug currently used by other groups in PDT (clinically or pre-clinically), and was on the order of that only previously seen with radiation in this model. Inhibition data is averaged over the injury length within the artery.

[2] = tested on: normal skin of CD Hairless male rats; format: in vivo, rat
How it was run: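 Liposomal egg yolk phospholipid photosensitizer given as single i.v. tail-vein bolus at 1, 1.5 and 2 μmol/kg; skin spots irradiated with 532 nm laser (150 mW/cm^2, 150J, 1 cm) at 1, 6, 24, 48, 96 hrs post injection. Value is time of last observed skin response spot.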

[3] = Cardiovascular safety in pig coronary artery models (ECG, HR, BP); format: in vivo; conditions: doses exceeding 20 mg/Kg
Procedure: as §1

| Normal skin Response (1 μmol) ([2]; rat, in vivo) [h] | Compound | Acellularity (%) (3 days) ([1]; drug dose 1 mg/Kg) | Acellularity (%) (3 days) ([1]; drug dose 2 mg/Kg) | Acellularity (%) (3 days) ([1]; drug dose 3 mg/Kg) | cardiotoxicity in pig coronary artery models [3] | Normal skin Response (1 μmol) ([2]; Table 3, time of last skin spot observed post injection, 1 μmol, 532 nm laser) [h] | normal skin responses, time post drug injection ([2]; rats, drug dose 1 μmol/Kg) [h] |
| --- | --- | --- | --- | --- | --- | --- | --- |
| 6 | COC(=O)CCC1=C(C)c2cc3[n-]c(cc4nc(cc5[n-]c(cc1n2)c(CCC(=O)OC)c5C)C=C4C)cc3C.[Cl-].[Ga+3] [Example 4, Gallium Chloride Deuteroporphyrin Dimethyl Ester] | 50 | 70 | 95 | no cardiotoxicity was observed | – | – |
| 6 | CCC1=C(C)C2=[N+]3C1=Cc1c(C)c(CC)c4[n]1[Ga-2]31([Cl])[n]3c(c(C)c(CCC(=O)NC)c3=CC3=[N+]1C(=C4)C(C)=C3CCC(=O)NC)=C2 [Example 121, Gallium Chloride Mesoporphyrin N-methyl Amide] | 45 | 75 | 95 | no cardiotoxicity was observed | – | – |
| – | Gallium Chloride Mesoporphyrin Dimethyl Ester [Example 1] | 50 | 70 | 100 | no cardiotoxicity was observed | 48 | 48 |
